Here are results for three substances from patent US11028127B2, “Peptides capable of reactivating p53 mutants” (Yeda Research and Development Co. Ltd., priority 2013, dated 2021).

Series [1] has as its system ES2 ovarian carcinoma cells (Mut-p53, position 241). Nature of the series: Annexin-V/PI apoptosis assay by flow cytometry. Format: cell-based. The note with it: 12 ug/ml. As to the method: (§1) FIGS. 17A, 17B, 17C and 17D illustrate representative experiments performed on ES2 ovarian carcinoma cells expressing Mut-p53 mutated at position 241 within the DBD. […] Cells were harvested and an apoptosis assay (FIGS. 17A and 17B) was performed using the Annexin-V staining kit (Roche, REF 11 988 549 001). Non-fixed cells were stained with both anti Annexin FITC conjugated antibody to detect apoptotic cells, and PI (propidium iodide) to stain dead cells, according to the manufacturer's instructions. Stained cells were then analyzed by flow cytometry. A total of 10,000 cells was counted for each sample and divided into four sub populations according to staining intensity; cells negative for both PI and Annexin (−PI, −Annexin) are termed live; cells negative for PI and positive for Annexin (−PI, +Annexin) are going through early stages of apoptosis; cells positive for PI and Annexin (+PI, +Annexin) are dead cells that underwent an apoptotic process; and cells positive for PI and negative for Annexin (+PI, −Annexin) are assumed as dead cells that died by a non-apoptotic process such as necrosis.
FIGS. 17A and 17B illustrate a representative experiments performed on ES2 ovarian carcinoma cells (FIGS. 17A-D) expressing Mut-p53 with a mutation at positions 241 within the DBD. […] Cells were harvested, and 60% of the cells were taken for Annexin-PI apoptosis assay and 40% for extraction of RNA, cDNA synthesis and real time PCR analysis. Apoptosis was assayed using the Annexin-V staining kit (Roche, REF 11 988 549 001). Non-fixed cells were stained with both anti Annexin FITC conjugated antibody to detect apoptotic cells, and PI (propidium-iodide) to stain dead cells permeable to the compound, according to the manufacturer's instructions. Stained cells were then analyzed by flow cytometry. A total of 10,000 cells was counted for each sample and divided into four subpopulations according to staining intensity: cells negative for both PI and Annexin (−PI, −Annexin) are termed live; cells negative for PI and positive for Annexin (−PI, +Annexin) are going through early stages of apoptosis; cells positive for PI and Annexin (+PI, +Annexin) are dead cells that underwent an apoptotic process; and cells positive for PI and negative for Annexin (+PI, −Annexin) are assumed to be dead cells that died a non-apoptotic death such as necrosis. […] Treatment with pCAPs 242 and 250 causes a rapid increase in apoptotic cells followed by cell death and after 5 hours of treatment 12% of cells are Annexin positive and about 7% are dead. After 16 and 24 hours of treatment with pCAP 250 the apoptotic population increases to about 27% and dead cells accumulate to 29% at 16h and 36% after 24h. […] CD95 and Btg-2 expression is elevated up to 6 fold over non-treated cells.

Series [2] shares this test system. Nature of the series: qRT-PCR of p53 target genes (p21, PUMA, CD95, Btg-2). Type of series: cell-based. The note with it: 12 ug/ml, over non-treated cells. How it is done: as §1
FIGS. 17A and 17B illustrate a representative experiments performed on ES2 ovarian carcinoma cells (FIGS. 17A-D) expressing Mut-p53 with a mutation at positions 241 within the DBD. […] Stained cells were then analyzed by flow cytometry. […]
Background: Quantitative PCR measures a nucleic acid by following its amplification.

Series [3] deals with MDA-MB-231 breast cancer cells (Mut-p53, position 280). The series can be described thus: Crystal violet viability assay. To be noted: shCon cells. Format: cell-based. An excerpt:
(§2) FIGS. 15A and 15B are bar graphs illustrating the effect of the various indicated peptides on the viability of breast cancer cells expressing different Mut-p53 isoforms, as determined by crystal violet assay. FIG. 15A: MDA-MB-231 cells expressing Mut-p53 with a mutation at position 280 of the DBD. FIG. 15B: SKBR3 cells expressing Mut-p53 with mutation at position 175 within the DBD. The bar graphs in FIGS. 15A and 15B show for each tested peptide the optical density reads at 595 nm, reflecting the number of cells in the plate after treatment, normalized to the non-treated (NT) samples.
(§3) Cells were cultured in 96 wells plates with 2500-4000 cells/well in 0.1 ml and incubated overnight at 37° C. in order to adhere to the plate. Serial dilutions of different peptides (0.5 μg/ml) were added in 0.1 ml aliquots and the plates incubated for additional 48 h at 37° C. Then medium was removed and cell lysis was determined by staining the cells with crystal violet (0.5%) in methanol/water (1:4, v/v), 50 μl each well, for 10 min, followed by 3 washes with PBS. Afterwards, 10% acetic acid (50 μl) was added to each well and shaken for 10 min. Then, automatic plate reading was performed at 595 nm.
(§4) Experiments using different cancer cell lines expressing endogenously different p53 mutant isoforms were performed. FIGS. 15A and 15B illustrate two representative experiments performed on MDA-MB-231 (FIG. 15A) and SKBR3 (FIG. 15B) breast cancer cells expressing Mut-p53 with mutations at positions 280 or 175, respectively, within the DNA Binding Domain (DBD). To examine the peptides' specificity for Mut-p53, the control used was such cells with a knockdown of Mut-p53 (shp53).

Series [4] concerns SKBR3 breast cancer cells (Mut-p53, position 175). The series can be described thus: Crystal violet viability assay. Type of series: cell-based. To be noted: shCon cells.
Text: as §2, §3, §4

Series [5] is described as follows: Solubility in DMSO. To be noted: at a concentration of 10 mg/ml. Type of series: physicochemical. An excerpt:
Addition of a poly arginine tail to peptides dramatically increases the solubility of peptides with a high content of hydrophobic amino acids. […] Lead peptides were further subjected to rigorous examination of effects on cell viability in a Mut-p53 specific manner.

Where no end group is shown, it is not given here.

As to myr-RRHSTPHPD [pCAP-250], the apoptotic population result in series [1] (after 16 and 24 hours of treatment) is listed as “about 27%”. The substance further showed an Annexin positive cells in series [1] (after 5 hours of treatment) of 12%. Moreover, the dead cells result is “about 7%” in series [1] (after 5 hours of treatment), 36% in series [1] (after 24h) and 29% in series [1] (at 16h). In series [2], the “p21 and PUMA mRNA expression increase over time” value was “up to 10 fold”.
For HANLHHTRRRRRRRRRRR [pCAP-146], in series [3], the “Mut-p53 specific effect on cell viability, MDA-MB-231 shCon cells” value is recorded as “significant decrease”. The “Mut-p53 specific effect on cell viability, SKBR3 shCon cells” value in series [4] was “almost no specific effect”.
Consider YRRLLIGMMW [pCAP-25], for which the “solubility in DMSO” value in series [5] was “insoluble”.
